These results are taken from patent publication US7824687B2, “Clustered multi-antigenic carbohydrate constructs, methods for their preparation, and uses thereof” (Sloan-Kettering Institute For Cancer Research, priority 1999, dated 2010).

The subject of one experiment is monoclonal antibody F12. Description: Binding to monoclonal antibody F12 (ELISA, immune thin layer chromatography, inhibition). From the text: In yet another example, a fucosyl GM1-KLH glycoconjugate is generated according to the method of the present invention, as discussed in Example 1. […] Clearly, the synthetic fucosyl GM1 pentenyl glycoside provides the antigenic epitope with which F12 reacts on SCLC cells.

The subject of experiment [1] is GD3-KLH and MUC1-KLH conjugates. The conditions noted are these: mouse; cited from earlier work.

Turning to “fucosyl GM1 pentenyl glycoside [n-pentenyl fucosyl GM1]”, the “binding to monoclonal antibody F12” value with monoclonal antibody F12 (ELISA and immune thin layer chromatography assays, prior to conjugation) is on record as “shown to bind”. The “inhibition of reactivity of natural fucosyl GM1 with F12” value in the experiment with monoclonal antibody F12 (preincubation of F12) is given as “completely inhibits”.

Take QS-21: the “augmentation of antibody responses compared to the conjugates alone” value in experiment [1] is given as 1000-100,000 fold.
